According to patent US4933347A, “Diamidines and bis(imidazolines) for the treatment of and prophylaxis against pneumocystis carinii pneumonia” (University of North Carolina at Chapel Hill, priority 1988, dated 1990):

Test system: Pneumocystis carinii
Test: Treatment of Pneumocystis carinii pneumonia in Sprague-Dawley rats (extent of disease by histologic score)
Format: in vivo, male Sprague-Dawley rats
Conditions: for Extent of Disease by Histologic Score: number of animals with score 0.5 / Extent of disease by histologic score (combined): number of animals in scoring group 0.5: 0.5 = <10 cysts found per 2 sections; for Extent of disease by histologic score (combined): number of animals in scoring group 0.5 / Extent of disease by histologic score (combined): number of animals in scoring group 1 / Extent of disease by histologic score (combined): number of animals in scoring group 2 / Extent of disease by histologic score (combined): number of animals in scoring group 3 / Extent of disease by histologic score (combined): number of animals in scoring group 4: Table XII composite; for Extent of disease by histologic score (combined): number of animals in scoring group 2: 5-10% of lung involved
Method: Induction and Treatment Of Pneumocystis Carinii in Sprague-Dawley Rats
Male Sprague-Dawley rats, barrier raised, non-certified virus free, weighing 150-200g were obtained from Hilltop Laboratories and housed individually. Animals were begun on a low (8%) protein diet (ICN Biomedicals, Cincinnati, OH) and drinking water containing tetracycline (0.5 mg/ml) and dexamethasone (1.0 μg/ml) immediately upon arrival. This treatment was given for the next 8 weeks, monitoring fluid intake daily and weighing animals weekly. Dilutions of the drinking solution were made when animals consumed too much fluid so as to prevent cortisone poisoning. At the beginning of the sixth week, animals were divided into groups of 8 animals each and the test compounds were administered daily by i.v. injection at a dose of 10 mg/kg, unless otherwise noted, for the next 14 days.
Animals were sacrificed at the end of the eighth week by chloroform inhalation and the left lung was removed aseptically and placed in sterile Hank's balanced salts solution without calcium or magnesium (HBSS-) for the ground tissue procedure. The right lung was inflated in situ with 10% […] and removed for histologic examination GMS staining. […]

[1] = 10 mg/kg unless otherwise noted
[2] = 10 mg/kg i.v. daily, 14 days, 1 = scattered cysts, <5% of lung involved
[3] = 10 mg/kg i.v. daily, 14 days, 2 = scattered cysts, 5-10% lung involved or small foci of infection
[4] = 10 mg/kg i.v. daily, 14 days, 3 = scattered cysts, 10-50% of lung involved with some intense areas of infection
[5] = 10 mg/kg i.v. daily, 14 days, 4 = >50% of lung involved with many intense areas of focal infection
[6] = 10 mg/kg, 1 = scattered cysts, <5% of lung involved
[7] = 10 mg/kg, 3 = scattered cysts, 10-50% of lung involved
[8] = 10 mg/kg, 4 = >50% of lung involved

SMILES | Efficacy in treating PCP compared with pentamidine [1] | Extent of Disease by Histologic Score: number of animals with score 0.5 (10 mg/kg i.v. daily, 14 days) [animals] | Extent of Disease by Histologic Score: number of animals with score 1 [2] [animals] | Extent of Disease by Histologic Score: number of animals with score 2 [3] [animals] | Extent of Disease by Histologic Score: number of animals with score 3 [4] [animals] | Extent of Disease by Histologic Score: number of animals with score 4 [5] [animals] | Extent of disease by histologic score (combined): number of animals in scoring group 0.5 (10 mg/kg) [animals] | Extent of disease by histologic score (combined): number of animals in scoring group 1 [6] [animals] | Extent of disease by histologic score (combined): number of animals in scoring group 2 (10 mg/kg, 2 = scattered cysts) [animals] | Extent of disease by histologic score (combined): number of animals in scoring group 3 [7] [animals] | Extent of disease by histologic score (combined): number of animals in scoring group 4 [8] [animals] | also measured
COc1cc(C(=N)N)ccc1OCCCCCOc1ccc(C(=N)N)cc1OC [Example 15] | improved performance in treating pcp | – | – | – | – | – | – | – | – | – | – | Extent of Disease by Histologic Score: number of animals with score 0.5 (5 mg/kg i.v. daily, 14 days): 0 animals; Extent of Disease by Histologic Score: number of animals with score 1 (5 mg/kg i.v. daily, 14 days, 1 = scattered cysts, <5% of lung involved): 3 animals; Extent of Disease by Histologic Score: number of animals with score 2 (5 mg/kg i.v. daily, 14 days, 2 = scattered cysts, 5-10% lung involved or small foci of infection): 4 animals; Extent of Disease by Histologic Score: number of animals with score 3 (5 mg/kg i.v. daily, 14 days, 3 = scattered cysts, 10-50% of lung involved with some intense areas of infection): 1 animals; Extent of Disease by Histologic Score: number of animals with score 4 (5 mg/kg i.v. daily, 14 days, 4 = >50% of lung involved with many intense areas of focal infection): 0 animals; Extent of Disease by Histologic Score: number of animals with score 0.5 (Table III, Example 15 (Table XII footnote d: 2.5 mg/kg)): 2 animals; Extent of Disease by Histologic Score: number of animals with score 1 (Table III, Example 15 (Table XII footnote d: 2.5 mg/kg), 1 = <5% of lung involved): 1 animals; Extent of Disease by Histologic Score: number of animals with score 2 (Table III, Example 15 (Table XII footnote d: 2.5 mg/kg), 2 = 5-10% lung involved): 3 animals; Extent of Disease by Histologic Score: number of animals with score 3 (Table III, Example 15 (Table XII footnote d: 2.5 mg/kg), 3 = 10-50% of lung involved): 0 animals; Extent of Disease by Histologic Score: number of animals with score 4 (Table III, Example 15 (Table XII footnote d: 2.5 mg/kg), 4 = >50% of lung involved): 0 animals; Extent of disease by histologic score (combined): number of animals in scoring group 0.5 (tested at 2.5 mg/kg): 2 animals; Extent of disease by histologic score (combined): number of animals in scoring group 1 (tested at 2.5 mg/kg, 1 = scattered cysts, <5% of lung involved): 4 animals; Extent of disease by histologic score (combined): number of animals in scoring group 2 (tested at 2.5 mg/kg, 2 = scattered cysts): 7 animals; Extent of disease by histologic score (combined): number of animals in scoring group 3 (tested at 2.5 mg/kg, 3 = scattered cysts, 10-50% of lung involved): 1 animals; Extent of disease by histologic score (combined): number of animals in scoring group 4 (tested at 2.5 mg/kg, 4 = >50% of lung involved): 0 animals; Efficacy in treating PCP compared with control (compound at 5 mg/kg): significantly better, at one half the dose, than the control
N=C(N)c1ccc(NCCCCCNc2ccc(C(=N)N)cc2N)c(N)c1 [Example 19] | not as good as pentamidine in controlling pcp | 0 | 2 | 4 | 2 | 0 | 3 | 2 | 3 | 0 | 0 | Efficacy in treating PCP compared with control [1]: better than the control
N=C(N)c1ccc(OCCCCCCOc2ccc(C(=N)N)cc2)cc1 [Example 20, hexamidine, reference compound] | improved performance in treating pcp | 3 | 3 | 1 | 0 | 0 | 3 | 3 | 1 | 0 | 0 | –
N=C(N)c1ccc(OCCCCCCOc2ccc(C(=N)N)cc2[N+](=O)[O-])c([N+](=O)[O-])c1 [Example 21] | – | – | – | – | – | – | – | – | – | – | – | Extent of Disease by Histologic Score: number of animals with score 0.5 (1.25 mg/kg (dose from Table XII footnote e)): 4 animals; Extent of Disease by Histologic Score: number of animals with score 1 (1.25 mg/kg (dose from Table XII footnote e), 1 = scattered cysts, <5% of lung involved): 1 animals; Extent of Disease by Histologic Score: number of animals with score 2 (1.25 mg/kg (dose from Table XII footnote e), 2 = scattered cysts, 5-10% lung involved or small foci of infection): 1 animals; Extent of Disease by Histologic Score: number of animals with score 3 (1.25 mg/kg (dose from Table XII footnote e), 3 = scattered cysts, 10-50% of lung involved): 0 animals; Extent of Disease by Histologic Score: number of animals with score 4 (1.25 mg/kg (dose from Table XII footnote e), 4 = >50% of lung involved): 0 animals; Extent of disease by histologic score (combined): number of animals in scoring group 0.5 (tested at 1.25 mg/kg): 4 animals; Extent of disease by histologic score (combined): number of animals in scoring group 1 (tested at 1.25 mg/kg, 1 = scattered cysts, <5% of lung involved): 1 animals; Extent of disease by histologic score (combined): number of animals in scoring group 2 (tested at 1.25 mg/kg, 2 = scattered cysts): 1 animals; Extent of disease by histologic score (combined): number of animals in scoring group 3 (tested at 1.25 mg/kg, 3 = scattered cysts, 10-50% of lung involved): 0 animals; Extent of disease by histologic score (combined): number of animals in scoring group 4 (tested at 1.25 mg/kg, 4 = >50% of lung involved): 0 animals
N=C(N)c1ccc(NCCCCCCNc2ccc(C(=N)N)cc2N)c(N)c1 [Example 23] | – | 3 | 1 | 2 | 0 | 1 | 3 | 1 | 2 | 0 | 1 | –
N=C(N)c1cccc(OCCCOc2cccc(C(=N)N)c2)c1 [Example 26] | – | 2 | 1 | 4 | 1 | 0 | 2 | 1 | 4 | 1 | 0 | –
N=C(N)c1cccc(OCCCCOc2cccc(C(=N)N)c2)c1 [Example 27] | – | 2 | 1 | 1 | 3 | 0 | 2 | 1 | 1 | 3 | 0 | –
N=C(N)c1cccc(OCCCCCOc2cccc(C(=N)N)c2)c1 [Example 28] | – | – | – | – | – | – | 4 | 3 | 6 | 2 | 1 | –
N=C(N)c1cccc(OCCCCCCOc2cccc(C(=N)N)c2)c1 [Example 29] | – | 1 | 4 | 1 | 2 | 0 | 1 | 4 | 1 | 2 | 0 | –
